Test results reported in PubChem BioAssay (NCI).
Where “and” joins values, the source holds several entries; their conditions need not be identical. Equal values may be shown once.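 Step 1: Grow cells in 96-well plates. Step 2: Expose to compound for 48 hours at 5 concentrations. Step 3: Interpolate endpoints linearly; if unreached, use highest concentration. GI50 marks 50% less growth. TGI: concentration producing complete growth inhibition.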

Legend:
Assay in all cases: growth of human tumour cells (NCI), 48 h
[1] = tested on: SR leukemia
[2] = tested on: UACC-62 melanoma
[3] = tested on: SNB-19 CNS
[4] = tested on: DU-145 prostate
[5] = tested on: PC-3 prostate
[6] = tested on: BT-549 breast
[7] = tested on: HCT-116 colon
[8] = tested on: HOP-92 NSCLC
[9] = tested on: SF-295 CNS
[10] = tested on: UO-31 renal
[11] = tested on: LOX IMVI melanoma
[12] = tested on: A498 renal

Compound O=C(CN=C(CN(c1ccccc1)c1ccccc1)Oc1c([N+](=O)[O-])cc([N+](=O)[O-])cc1[N+](=O)[O-])N1CCNCC1 has a TGI [1] of over 100 µM, a TGI [2] of over 100 µM and a TGI [3] of over 100 µM. It also gave a TGI [4] of over 100 µM, a TGI [5] of over 100 µM and a TGI [6] of over 100 µM. The TGI [7] was over 100 µM, the TGI [8] was over 100 µM and the TGI [9] was over 100 µM.

COc1ccccc1/C=C1/Sc2scc(CC(=O)Nc3ccccc3)[n+]2C1=O was tested, and the TGI [10] was 70.7 µM, the TGI [11] was over 100 µM and the TGI [2] was 45.1 µM. The TGI [3] was over 100 µM, the TGI [4] was over 100 µM and the TGI [5] was 93.3 µM. The TGI [6] was 93.2 µM, the TGI [7] was over 100 µM and the TGI [8] was 52.3 µM. For the same compound, the TGI [9] was over 100 µM.

For CCCCN(CCCC)c1ccc(N=Nc2ccc(S(=O)(=O)O)cc2)cc1, the TGI [10] was over 100 µM, the TGI [12] was over 100 µM and the TGI [11] was 42.8 µM. The TGI [2] was over 100 µM, the TGI [3] was over 100 µM and the TGI [4] was over 100 µM. It also gave a TGI [5] of 97.1 µM, a TGI [6] of over 100 µM and a TGI [7] of 29.4 µM. It also gave a TGI [8] of 22.1 µM and a TGI [9] of over 100 µM.

C[C@@H]1CCN(C(=O)CC#N)C[C@@H]1N(C)c1ncnc2[nH]ccc12 gave a GI50 [10] of 31.3 µM, a TGI [10] of over 100 µM and a GI50 [12] of 23.3 µM. It also gave a TGI [12] of over 100 µM, a GI50 [11] of over 100 µM and a TGI [11] of over 100 µM. The GI50 [4] was over 100 µM, the TGI [4] was over 100 µM and the GI50 [9] was over 100 µM. The TGI [9] was over 100 µM.

Work on C/C=C/OC1C(C2COC(C)(C)O2)OC2OC(C)(C)OC21 (centres undefined) yielded a TGI [10] of over 100 µM, a TGI [12] of over 100 µM and a TGI [11] of over 100 µM. It also gave a TGI [1] of over 100 µM, a TGI [3] of over 100 µM and a TGI [4] of over 100 µM. It also gave a TGI [5] of over 100 µM, a TGI [7] of over 100 µM and a TGI [8] of over 100 µM. The TGI [9] was over 100 µM.

COc1ccc(/C=N/n2c(C)n[nH]c2=O)cc1 gave a TGI [10] of over 100 µM, a TGI [12] of over 100 µM and a TGI [2] of over 100 µM. It also gave a TGI [3] of over 100 µM, a TGI [4] of over 100 µM and a TGI [5] of over 100 µM. For the same compound, the TGI [6] was over 100 µM, the TGI [7] was over 100 µM and the TGI [9] was over 100 µM.

CCOC(=O)c1ccc(Nc2nc3ccc(C(F)(F)F)cc3nc2-c2ccccc2)cc1 was tested, and the TGI [10] was over 100 µM, the TGI [11] was over 100 µM and the TGI [1] was over 100 µM. The TGI [2] was 74.5 µM, the TGI [3] was over 100 µM and the TGI [4] was over 100 µM. For the same compound, the TGI [5] was over 100 µM, the TGI [7] was over 100 µM and the TGI [9] was over 100 µM.

Compound CC(=O)O/C(=C(/C#N)C(=O)O)C1C(C(=O)O)C(c2ccccc2[N+](=O)[O-])C=C(c2ccco2)N1c1ccncc1 (centres undefined) has a TGI [10] of 7.53 µM, a TGI [12] of 25 µM and a TGI [11] of 5.78 µM. It also gave a TGI [2] of 17 µM, a TGI [3] of 24.2 µM and a TGI [4] of 21.4 µM. The TGI [5] was 18.4 µM, the TGI [6] was 16.3 µM and the TGI [7] was 3.06 µM. It also gave a TGI [8] of 35.1 µM and a TGI [9] of 19.2 µM.

Compound COc1cc(/C=C2\CCc3cc(OC)c(OC)cc3C2=O)cc(OC)c1 has a TGI [10] of over 100 µM, a TGI [12] of 39.8 µM and a TGI [11] of 30.9 µM. For the same compound, the TGI [2] was 18.4 µM, the TGI [3] was over 100 µM and the TGI [4] was 78.5 µM. For the same compound, the TGI [5] was over 100 µM, the TGI [6] was 65.8 µM and the TGI [7] was over 42.3 µM. For the same compound, the TGI [8] was over 100 µM and the TGI [9] was over 25.1 µM.

For CCO[C@H]1C[C@@H](c2ccccc2)[C@]2(C)C[C@H](C(=O)OC)ON2O1, the TGI [10] was over 100 µM, the TGI [12] was over 100 µM and the TGI [11] was over 100 µM. The TGI [2] was over 100 µM, the TGI [3] was over 100 µM and the TGI [4] was over 100 µM. For the same compound, the TGI [5] was over 100 µM, the TGI [6] was over 100 µM and the TGI [7] was over 100 µM. For the same compound, the TGI [8] was over 100 µM and the TGI [9] was over 100 µM.

Work on CCOC(=O)/C=C/[C@H](O[Si](c1ccccc1)(c1ccccc1)c1ccccc1)C(C)(C)C yielded a TGI [10] of over 31.6 µM, a TGI [12] of over 31.6 µM and a TGI [11] of over 31.6 µM. For the same compound, the TGI [2] was over 31.6 µM, the TGI [3] was over 31.6 µM and the TGI [4] was over 31.6 µM. For the same compound, the TGI [5] was over 31.6 µM, the TGI [7] was over 31.6 µM and the TGI [8] was over 31.6 µM. It also gave a TGI [9] of over 31.6 µM.

In the case of O=[N+]([O-])c1cccc2nc3ccccc3c(NCCNCCO)c12, the GI50 [10] was 0.0448 µM, the TGI [10] was 0.392 µM and 0.192 µM and the TGI [12] was 0.0264 µM. For the same compound, the TGI [11] was 0.0184 µM and 0.112 µM, the TGI [2] was 0.0315 µM and 0.0174 µM and the GI50 [3] was 0.0102 µM. The TGI [5] was 0.017 µM, the TGI [6] was 0.0273 µM and 0.0259 µM and the TGI [7] was 0.107 µM. For the same compound, the TGI [8] was 0.0237 µM and the TGI [9] was 0.0367 µM and 0.133 µM.

With O=C(O)c1cc2c(cc1S(=O)(=O)O)C1C(C3C2C2(Cl)C(Cl)=C(Cl)C3(Cl)C2(Cl)Cl)C2(Cl)C(Cl)=C(Cl)C1(Cl)C2(Cl)Cl (centres undefined) the TGI [10] was over 100 µM, the TGI [12] was over 100 µM and the TGI [1] was 74.7 µM. For the same compound, the TGI [2] was 46.9 µM, the TGI [3] was over 100 µM and the TGI [4] was over 100 µM. For the same compound, the TGI [5] was over 100 µM, the TGI [6] was over 100 µM and the TGI [7] was 32.3 µM. It also gave a TGI [8] of 85.2 µM and a TGI [9] of 60.2 µM.

With Cc1[nH]n(-c2nc(O)c(C)c(=O)[nH]2)c(=O)c1CCO the TGI [10] was over 100 µM, the TGI [12] was over 100 µM and the TGI [2] was over 100 µM. The TGI [3] was over 100 µM, the TGI [4] was over 100 µM and the TGI [5] was over 100 µM. For the same compound, the TGI [6] was over 100 µM, the TGI [7] was over 100 µM and the TGI [8] was over 100 µM. The TGI [9] was over 100 µM.

With CO/N=C1/C(n2[nH]c(=O)n(-c3ccccc3)c2=O)C2C=CC1n1c(=O)n(-c3ccccc3)c(=O)n12 (centres undefined) the TGI [10] was over 100 µM, the TGI [12] was over 100 µM and the TGI [11] was over 100 µM. The TGI [1] was over 100 µM, the TGI [2] was over 100 µM and the TGI [3] was over 100 µM. It also gave a TGI [4] of over 100 µM, a TGI [5] of over 100 µM and a TGI [6] of over 100 µM. It also gave a TGI [7] of over 100 µM.

Cn1c2ccccc2n2c3ccccc3c(=S)c(C#N)c12 gave a TGI [10] of over 100 µM, a TGI [12] of over 100 µM and a TGI [11] of over 100 µM. For the same compound, the TGI [1] was over 100 µM, the TGI [2] was over 100 µM and the TGI [3] was over 100 µM. The TGI [4] was over 100 µM, the TGI [5] was over 100 µM and the TGI [6] was over 100 µM. For the same compound, the TGI [7] was over 100 µM and the TGI [9] was over 100 µM.

CC(C)(C)OC(=O)/C=C/C(=O)O/C=C/[N+](=O)[O-] showed a TGI [10] of over 100 µM, a TGI [12] of over 100 µM and a TGI [11] of over 100 µM. The TGI [1] was over 100 µM, the TGI [2] was over 100 µM and the TGI [4] was over 100 µM. The TGI [7] was over 100 µM, the TGI [8] was over 100 µM and the TGI [9] was over 100 µM.

FC(F)(F)C1(C(F)(F)F)OC(Cl)(Cl)C(Cl)(Cl)O1 showed a TGI [12] of over 10 µM, a TGI [11] of over 10 µM and a TGI [2] of over 10 µM. The TGI [3] was over 10 µM, the TGI [4] was over 10 µM and the TGI [5] was over 10 µM. The TGI [6] was over 10 µM, the TGI [7] was over 10 µM and the TGI [8] was over 10 µM. It also gave a TGI [9] of over 10 µM.

Compound Cc1cc(S(N)(=O)=O)c(S/C(=N\Nc2ccc([N+](=O)[O-])cc2)c2ccc(Cl)cc2)cc1Cl has a TGI [10] of 22 µM, a TGI [12] of 21.8 µM and a TGI [1] of 9.01 µM. It also gave a TGI [2] of 20.2 µM, a TGI [3] of 27 µM and a TGI [4] of 5.51 µM. It also gave a TGI [6] of 35.4 µM, a TGI [7] of over 100 µM and a TGI [8] of 5.4 µM. It also gave a TGI [9] of 5.46 µM.

Work on N#Cc1nsnc1-c1nc(-c2nsnc2C#N)nc(-c2nsnc2C#N)n1 yielded a TGI [10] of over 100 µM, a TGI [12] of over 100 µM and a TGI [11] of over 100 µM. For the same compound, the TGI [1] was over 100 µM, the TGI [2] was over 100 µM and the TGI [3] was over 100 µM. For the same compound, the TGI [4] was over 100 µM, the TGI [5] was over 100 µM and the TGI [6] was over 100 µM. It also gave a TGI [7] of over 100 µM and a TGI [9] of over 100 µM.
